Assays:
Caco-2 cell monolayers = test: Transepithelial transfer; assay type: in vitro ADME, human; settings: for compound found in cells: cell homogenate after 4 h, before or after deconjugation; for uptake (transport rate): 4 h
Transepithelial transfer = assay type: in vitro ADME, human; settings: human, Caco-2, pH 7.4
[1] = ref Konishi et al. 2005; Bérangère et al., 2004; cited from earlier work

O=C(/C=C/c1ccc(O)c(O)c1)O[C@H](Cc1ccc(O)c(O)c1)C(=O)O [RA, Rosmarinic acid]
basolateral detection at 0.5 and 1 h (Caco-2 cell monolayers; before deconjugation, 10 μM RA): not detected
compound found in cells (Caco-2 cell monolayers): neither RA nor UA was found in cells
recovery at 4 h, 10 μM (Transepithelial transfer): 86.7 ± 2.9%
partition coefficient (Log P) [1]: 0.2

C[C@H]1[C@H](C)CC[C@]2(C(=O)O)CC[C@]3(C)C(=CC[C@@H]4[C@@]5(C)CC[C@H](O)C(C)(C)[C@@H]5CC[C@]43C)[C@H]12 [UA, Ursolic acid]
detection of UA after apical application of P. vulgaris extracts (Caco-2 cell monolayers; apically-applied P. vulgaris extracts containing 1-10 μM RA): not detected
compound found in cells (Caco-2 cell monolayers): neither RA nor UA was found in cells
uptake (transport rate) (Caco-2 cell monolayers; highest tested concentration, 20 μM): 0.2 ± 0.04 μM/h/cm^2
uptake (transport rate) (Caco-2 cell monolayers; lowest tested concentration, 5 μM): 0.03 ± 0.01 μM/h/cm^2
partition coefficient (Log P) [1]: 6.4

lucifer yellow [LY, reference compound]
basolateral recovery of paracellular marker (Caco-2 cell monolayers; 100 μM LY): 0.5 ± 0.1%
Papp before deconjugation (Caco-2 cell monolayers; apical to basolateral, HBSS pH 7.4, RA 10 μM, UA 5, 10 and 20 μM, LY 100 μM): 0.3 ± 0.1 cm/s ×10^−6

Source: PMC3202029 (Journal of ethnopharmacology, 2011)
